In assay [1] the test system is MDA-MB-435. Put plainly: Growth inhibition, neutral red assay, MDA-MB-435. The class given is cell-based, human. The note with it: free base, five days. On the procedure:
Compound I's activity is not confined to activity against colon cancer cell lines or animal models of colon cancer. It has a broad range of anti-neoplastic effects in various neoplastic cell lines. Various types of human cancer cell lines were propagated under sterile conditions in RPMI 1640 medium with 10% fetal bovine serum, 2 mM L-glutamine and sodium bicarbonate. To determine growth inhibitory effects of Compound I, cells were seeded in 96-well plates at a density of 1000 cells per well. Twenty-four hours after plating, the cells were dosed with various concentrations of the free base of Compound I solubilized in DMSO (final concentration 0.1%). The effect of the drug on tumor cell growth was determined using the neutral red cytotoxicity assay following five days of continuous treatment. Neutral red is a dye that is selectively taken up by viable cells by an ATP-dependent transport mechanism.

The test system of assay [2] is new polyps in patients with adenomatous polyposis coli. The assay can be described thus: Clinical prevention trial in APC patients. Format: in vivo, human. An excerpt:
The first clinical trial involved patients with APC.
using exisulind. In that study, each patient had already had his/her colon removed, except for a small section of colon adjacent the rectum (where the small intestine was attached) to preserve rectal function. However, such a patient commonly forms polyps in the small remaining colonic section, which polyps require periodic removal (e.g., by electrocautery).
That trial where exisulind was selected was a prevention trial designed to evaluate the anti-neoplastic characteristics of the drug by comparing the cumulative number of new polyps formed over twelve months by the drug and placebo groups. Eligible patients were those who form between 9 and 44 polyps per year. Patients were fully ablated (had all polyps removed) at the start of the study, at the end of 6 months and at the end of 12 months. The study enrolled thirty-four eligible patients. […] Based on the median number of polyps produced in the first six months of the study, patients treated with exisulind developed approximately one-third the number of polyps as patients treated with placebo (median values 9 polyps/year and 26 polyps/year, respectively; p=0.013). […]

Assay [3] deals with HT-29 cells. Put plainly: Apoptosis and necrosis by morphology (acridine orange and ethidium bromide). Format: cell-based, human. The note with it: HT-29 treated for six days. An excerpt:
Apoptosis occurs naturally during normal tissue turnover and during embryonic development of organs and limbs. Apoptosis also is induced by cytotoxic T-lymphocytes and natural killer cells, by ionizing radiation and by certain chemotherapeutic drugs. Inappropriate regulation of apoptosis is thought to play an important role in many pathological conditions including cancer, AIDS, or Alzheimer's disease, etc. Compounds can be screened for induction of apoptosis using cultures of tumor cells maintained under conditions as described above. Treatment of cells with test compounds involves either pre- or post-confluent cultures and treatment for two to seven days at various concentrations. Apoptotic cells are measured in both the attached and “floating” compartments of the cultures. Both compartments are collected by removing the supernatant, trypsinizing the attached cells, and combining both preparations following a centrifugation wash step (10 minutes, 2000 rpm). The protocol for treating tumor cell cultures with sulindac and related compounds to obtain a significant amount of apoptosis has been described in the literature. (See, Piazza, G. A., et al., Cancer Research, 55:3110-16, 1995, which is incorporated herein by reference). The novel features include collecting both floating and attached cells, identification of the optimal treatment times and dose range for observing apoptosis, and identification of optimal cell culture conditions.
Following treatment with a compound, cultures can be assayed for apoptosis and necrosis by florescent microscopy following labeling with acridine orange and ethidium bromide. The method for measuring apoptotic cell number has previously been described by Duke & Cohen, “Morphological And Biochemical Assays Of Apoptosis,” Current Protocols In Immunology, Coligan et al., eds., 3.17.1-3.17.16 (1992, which is incorporated herein by reference).
For example, floating and attached cells can be collected by trypsinization and washed three times in PBS. Aliquots of cells can be centrifuged. The pellet can then be re-suspended in media and a dye mixture containing acridine orange and ethidium bromide prepared in PBS and mixed gently. The mixture can then be placed on a microscope slide and examined for morphological features of apoptosis.
Reference compounds and test compounds were analyzed for their novel PDE inhibitory activity in accordance with the protocols for the assay, supra. […] Apoptotic and necrotic cell death was determined previously (Duke and Cohen, In: Current Protocols in Immunology, 3.17.1-3.17.16, New York, John Wiley and Sons, 1992). […] All data were collected from the same experiment.
The apoptosis inducing activity for a series of phosphodiesterase inhibitors was determined. HT-29 cell were treated for 6 days with various inhibitors of phosphodiesterase. Apoptosis and necrosis were determined morphologically after acridine orange and ethidium bromide labeling in accordance with the assay described, supra.

In assay [4] the test system is HCT116, Colon. The assay can be described thus: Growth inhibition, SRB assay, HCT116. Format: cell-based. Particulars: Homo sapiens, HCT-116. An excerpt: A compound's ability to inhibit tumor cell growth can be measured using the HT-29 human colon carcinoma cell line obtained from ATCC. HT-29 cells have previously been characterized as a relevant colon tumor cell culture model (Fogh, J., and Trempe, G. In: Human Tumor Cells in Vitro, J. Fogh (eds.), Plenum Press, New York, pp. 115-159, 1975). HT-29 cells are maintained in RPMI media supplemented with 5% fetal bovine calf serum (Gemini Bioproducts, Inc., Carlsbad, Calif.) and 2 mm glutamine, and 1% antibiotic-antimycotic in a humidified atmosphere of 95% air and 5% CO2 at 37° C. Briefly, HT-29 cells are plated at a density of 500 cells/well in 96 well microtiter plates and incubated for 24 hours at 37° C. prior to the addition of compound. […] After six days in culture, the cells are fixed by the addition of cold trichloroacetic acid to a final concentration of 10% and protein levels are measured using the sulforhodamine B (SRB) colorimetric protein stain assay as previously described by Skehan, P., Storeng, R., Scudiero, D., Monks, A., McMahon, J., Vistica, D., Warren, J. T., Bokesch, H., Kenney, S., and Boyd, M. R., “New Colorimetric Assay For Anticancer-Drug Screening,” J. Natl. Cancer Inst. […]
To show the effectiveness of this screening method on various forms of neoplasia, compounds were tested on numerous cell lines. […] The IC50 values were determined by the SRB assay. […]
(The SRB assay estimates cell density from bound dye.)

From patent US20030109418A1, “Methods for identifying compounds for inhibition of neoplastic lesions, and pharmaceutical compositions containing such compounds” (priority 1999, published 2003) come the findings set out here.

The term GI50 denotes the concentration that inhibits growth by half. One may read the IC50 as the concentration that inhibits the measured activity by half. Lower therefore signals greater potency in that assay.

Structures can show the parent of a compound that is named as a salt.

In assay [1] (Homo sapiens, MDA-MB-435, 120 h), `CC1=C(CC(=O)NCc2ccccc2)c2cc(F)ccc2/C1=C\c1ccncc1` [Compound I, (Z)-5-fluoro-2-methyl-(4-pyridylidene)-3-(N-benzyl)indenylacetamide hydrochloride] came in with a GI50 of 1.6 µM. In addition, the “GI90 μM, MDA-MB-435” value in assay [1] was determined as 2.3 µM.
`CC1=C(CC(=O)O)c2cc(F)ccc2/C1=C\c1ccc(S(C)(=O)=O)cc1` [Exisulind, 5-fluoro-2-methyl-1-(p-methylsulfonylbenzylidene)-3-indenylacetic acid]: the “median number of polyps produced, entire 12 months” value in assay [2] (entire 12 months of the study) is given as 18 polyps/year. Further, the “median number of polyps produced, first six months” value in assay [2] (first six months of the study) is recorded as 9 polyps/year. Also, the “apoptotic and necrotic cell death” value in assay [3] is given as “capable of causing apoptotic cell death without inducing necrosis”. The compound also gave an IC50 in assay [4] of 90 µM.
